# Results taken from US5576323A, “Excitatory amino acid receptor antagonists” (Eli Lilly and Company, priority 1994, dated 1996).
# Test system: metabotropic glutamate receptors
# Assay: displacement of 1S,3R-ACPD-sensitive [3H]glutamate binding to rat forebrain crude membranes
# Details: 100 μM, mixture of enantiomers unless otherwise noted
# Procedure: The binding of [^3 H]glutamate was conducted with crude membranes of rat forebrain as described by Schoepp and True. Schoepp and True, Neuroscience Lett., 145, 100-104 (1992), True and Schoepp, Society for Neuroscience Abstracts, 19, 470 (1993) and Wright, McDonald and Schoepp, J. Neurochem. 63: 938-945, 1994.
row,Structure (SMILES),Percent displacement of L-[3H]Glu [%]
1,"N[C@@H](C[C@H](Oc1ccc2oc3ccccc3c2c1)C(=O)O)C(=O)O [Compound 47, (2S,4S)-4-(2-Dibenzofuranoxy)glutamic Acid]",107.1
2,"Cc1ccccc1OC(C[C@H](N)C(=O)O)C(=O)O (some centres unmarked) [Compound 4, 4-(2-Methylphenoxy)glutamic acid]",66.5
3,"N[C@@H](CC(Oc1ccc2c(c1)CCC2)C(=O)O)C(=O)O (some centres unmarked) [Compound 28, 4-(5-Indanyloxy)glutamic Acid]",97.8
4,"N[C@@H](CC(Oc1ccc2c(c1)OCO2)C(=O)O)C(=O)O (some centres unmarked) [Compound 29, 4-(3,4-Methylenedioxyphenoxy)glutamic Acid]",89.0
5,"N[C@@H](CC(Oc1cccc2ccccc12)C(=O)O)C(=O)O (some centres unmarked) [Compound 25, 4-(1-Naphthyloxy)glutamic Acid]",98.5
6,"N[C@@H](CC(Oc1ccc(CC=Cc2ccccc2)cc1)C(=O)O)C(=O)O (some centres unmarked) [Compound 17, 4-(4-(3-Phenylprop-2-enyl)phenoxy)glutamic Acid]",75.9
7,"N[C@@H](CC(Oc1ccc(C=Cc2ccc([N+](=O)[O-])cc2)cc1)C(=O)O)C(=O)O (some centres unmarked) [Compound 18, 4-(4-(2-(4-Nitrophenyl)ethenyl)phenoxy)glutamic Acid]",92.1
8,"N[C@@H](CC(Oc1ccc2c(c1)Cc1ccccc1-2)C(=O)O)C(=O)O (some centres unmarked) [Compound 30, 4-(2-Fluorenoxy)glutamic Acid]",93.7
9,"N[C@@H](CC(Oc1ccc(CCCCCCc2ccccc2)cc1)C(=O)O)C(=O)O (some centres unmarked) [Compound 16, 4-(4-(6-Phenylhexyl)phenoxy)glutamic Acid]",76.9
10,NC(CC(Oc1ccc(CCCc2ccccc2)cc1)C(=O)O)C(=O)O (centres unmarked) [Compound 50],75.9
11,NC(CC(Oc1ccc(C(c2ccc(Cl)cc2)c2ccccn2)cc1)C(=O)O)C(=O)O (centres unmarked) [Compound 35],92.4
12,"N[C@@H](CC(Oc1ccc2oc3ccccc3c2c1)C(=O)O)C(=O)O (some centres unmarked) [Compound 31, 4-(2-Dibenzofuranoxy)glutamic Acid]",99.4
13,"N[C@@H](CC(Oc1cccc2c1CCCC2)C(=O)O)C(=O)O (some centres unmarked) [Compound 26, 4-(5,6,7,8-Tetrahydro-1-naphthyloxy)glutamic Acid]",82.1
14,"N[C@@H](CC(Oc1ccc(CCc2ccccc2)cc1)C(=O)O)C(=O)O (some centres unmarked) [Compound 49, 4-(4-(2-phenylethyl)phenoxy)glutamic acid]",81.5
15,"CC1(C)CCC(C)(C)c2cc(OC(C[C@H](N)C(=O)O)C(=O)O)ccc21 (some centres unmarked) [Compound 27, 4-(6,7-Dihydro-5,5,8,8-tetramethyl-2-naphthyloxy)glutamic Acid]",66.5
16,"N[C@@H](CC(Sc1n[nH]c(C=Cc2ccccc2Cl)n1)C(=O)O)C(=O)O (some centres unmarked) [Compound 38, 4-(5-((2-Chlorophenyl)ethenyl)-1,2,4-triazole-3-thio)glutamic Acid]",89.9
17,"N[C@@H](CC(Oc1cccc(-c2ccccc2)c1)C(=O)O)C(=O)O (some centres unmarked) [Compound 13, 4-(3-Phenylphenoxy)glutamic Acid]",81.6
18,"NC(CC(Oc1ccc(/C=C/c2ccccc2)cc1)C(=O)O)C(=O)O (centres unmarked) [Compound 48, 4-(4-(4-phenylethenyl)phenoxy)glutamic acid]",91.9
19,"NC(CC(Sc1ccc2ccccc2c1)C(=O)O)C(=O)O (centres unmarked) [Compound 24, 4-(2-Naphthalenethio)glutamic Acid]",100.6
20,"N[C@@H](CC(Oc1ccc2cc(Br)ccc2c1Br)C(=O)O)C(=O)O (some centres unmarked) [Compound 23, 4-(1,6-Dibromo-2-naphthyloxy)glutamic Acid]",99.5
21,"N[C@@H](CC(Oc1ccc(CCCCc2ccccc2)cc1)C(=O)O)C(=O)O (some centres unmarked) [Compound 51, 4-(4-(4-phenylbutyl)phenoxy)glutamic acid]",81.0
22,"NC(CC(Sc1ccccc1)C(=O)O)C(=O)O (centres unmarked) [Compound 2, 4-Benzenethioglutamic Acid]",77.1
23,"N[C@@H](CC(Oc1ccc(OCc2ccccc2)cc1)C(=O)O)C(=O)O (some centres unmarked) [Compound 20, 4-(4-Benzyloxyphenoxy)glutamic Acid]",67.8
24,"NC(CC(Oc1ccc2oc3c(c2c1)CCCC3)C(=O)O)C(=O)O (centres unmarked) [Compound 32, 4-(5,6,7,8-Tetrahydro-2-dibenzofuranoxy)glutamic Acid]",92.6
25,"N[C@@H](CC(Oc1ccccc1Cc1ccccc1)C(=O)O)C(=O)O (some centres unmarked) [Compound 15, 4-(2-Benzylphenoxy)glutamic Acid]",85.9
26,"NC(CC(Sc1nncn1Cc1ccccc1)C(=O)O)C(=O)O (centres unmarked) [Compound 36, 4-(4-Benzyl-1,2,4-triazole-3-thio)glutamic Acid]",81.3
27,"N[C@@H](CC(Oc1ccc(Oc2ccccc2)cc1)C(=O)O)C(=O)O (some centres unmarked) [Compound 19, 4-(4-Phenoxyphenoxy)glutamic Acid]",84.6

# Other lines, results leading:
row,Percent displacement of L-[3H]Glu [%],Structure (SMILES)
1,88.0,"N[C@@H](CC(Oc1ccccc1)C(=O)O)C(=O)O (some centres unmarked) [Compound 1, 4-Phenoxyglutamic Acid]"
2,85.5,"N[C@@H](C[C@H](Oc1ccc(-c2ccccc2)cc1)C(=O)O)C(=O)O [Compound 46, (2S,4S)-4-(4-Phenylphenoxy)glutamic Acid]"
3,82.4,"Cc1ccc(OC(C[C@H](N)C(=O)O)C(=O)O)cc1 (some centres unmarked) [Compound 3, 4-(4-Methylphenoxy)glutamic Acid]"
4,103.2,"Cc1ccc(O[C@@H](C[C@H](N)C(=O)O)C(=O)O)cc1 [Compound 44, (2S,4S)-4-(4-Methylphenoxy)glutamic Acid]"
5,85.8,CC(=O)c1ccc(OC(CC(N)C(=O)O)C(=O)O)cc1 (centres unmarked) [Compound 9]
6,52.3,"CC(C)(C)CC(C)(C)c1ccc(OC(C[C@H](N)C(=O)O)C(=O)O)cc1 (some centres unmarked) [Compound 8, 4-(4-(1,1,3,3-Tetramethylbutyl)phenoxy)glutamic Acid]"
7,53.9,"CC(C)c1ccc(OC(C[C@H](N)C(=O)O)C(=O)O)cc1 (some centres unmarked) [Compound 6, 4-(4-(Isopropyl)phenoxy)glutamic Acid]"
8,72.0,"N[C@@H](CC(Oc1ccc(C2CCCC2)cc1)C(=O)O)C(=O)O (some centres unmarked) [Compound 7, 4-(4-Cyclopentylphenoxy)glutamic Acid]"
9,95.9,"N[C@@H](CC(Oc1ccc2ccccc2c1)C(=O)O)C(=O)O (some centres unmarked) [Compound 21, 4-(2-Naphthyloxy)glutamic Acid]"
10,93.9,"N[C@@H](CC(Oc1ccc2cc(Br)ccc2c1)C(=O)O)C(=O)O (some centres unmarked) [Compound 22, 4-(6-Bromo-2-naphthyloxy)glutamic Acid]"
11,82.3,"COc1ccc(OC(C[C@H](N)C(=O)O)C(=O)O)cc1 (some centres unmarked) [Compound 5, 4-(4 Methoxyphenoxy)glutamic Acid]"
12,101.5,"N[C@@H](C[C@H](Oc1ccc2ccccc2c1)C(=O)O)C(=O)O [Compound 45, (2S,4S)-4-(2-Naphthyloxy)glutamic Acid]"
13,77.9,"N[C@@H](CC(Oc1ccc(C(F)(F)F)cc1)C(=O)O)C(=O)O (some centres unmarked) [Compound 10, 4-(4-Trifluoromethylphenoxy)glutamic Acid]"
14,90.1,"Cc1cc2cc(OC(C[C@H](N)C(=O)O)C(=O)O)ccc2o1 (some centres unmarked) [Compound 33, 4-(2-Methyl-5-benzofuranyloxy)glutamic Acid]"
15,86.7,"N[C@@H](CC(Oc1ccc(-c2ccccc2)cc1)C(=O)O)C(=O)O (some centres unmarked) [Compound 12, 4-(4-Phenylphenoxy)glutamic Acid]"
16,93.8,"N[C@@H](CC(Oc1ccc(Cc2ccccc2)cc1)C(=O)O)C(=O)O (some centres unmarked) [Compound 14, 4-(4-Benzylphenoxy)glutamic Acid]"
17,95.3,"N[C@@H](CC(Oc1ccc2sccc2c1)C(=O)O)C(=O)O (some centres unmarked) [Compound 34, 4-(5-Benzothiophenyloxy)glutamic Acid]"
